Assays:
[1] = target: T1, HiBit-BRG1 fusion protein (Homo sapiens, UniProt P51532); assay: HiBiT-BRG1 cell-based degradation assay (Nano-Glo HiBiT Lytic Detection, 24 h); conditions: HeLa cells expressing HiBit-BRG1 and LgBit; for DC50: read-out: BRG1 HiBit Degradation IC50; for Dmax: HeLa, top dose 30 μM, read-out: BRG1 HiBit Degradation Maximum measured
T1 construct: expressed in transfected cells
How it was run: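 Stable HeLa line expressing HiBiT-BRG1 and LgBiT, seeded at 5000 cells/well; luminescence read after lytic Nano-Glo HiBiT reagent and 10 min shaking at RT. % degradation normalised between DMSO (high control) and 2 μM reference BRM/BRG1 degrader (low control).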

HiBit-BRM fusion protein = target: T2, HiBit-BRM fusion protein (Homo sapiens, UniProt P51531); assay: HiBiT-BRM cell-based degradation assay (Nano-Glo HiBiT Lytic Detection, 24 h); conditions: HeLa cells expressing HiBiT-BRM; for DC50: read-out: BRM HiBit Degradation IC50; for BRM HiBit Degradation Maximum measured: top dose 30 μM
T2 construct: expressed in transfected cells
How it was run: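 Luminescence from reconstituted NanoBiT luciferase in lysed HeLa HiBiT-BRM cells served as the measure of remaining BRM after 24 h treatment. Compounds were tested from 30 μM final downward in 3-fold steps. DMSO and 2 μM of a standard BRM/BRG1 degrader defined the scale limits.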

T2 sequence (P51531 whole entry, the tested form may be a part): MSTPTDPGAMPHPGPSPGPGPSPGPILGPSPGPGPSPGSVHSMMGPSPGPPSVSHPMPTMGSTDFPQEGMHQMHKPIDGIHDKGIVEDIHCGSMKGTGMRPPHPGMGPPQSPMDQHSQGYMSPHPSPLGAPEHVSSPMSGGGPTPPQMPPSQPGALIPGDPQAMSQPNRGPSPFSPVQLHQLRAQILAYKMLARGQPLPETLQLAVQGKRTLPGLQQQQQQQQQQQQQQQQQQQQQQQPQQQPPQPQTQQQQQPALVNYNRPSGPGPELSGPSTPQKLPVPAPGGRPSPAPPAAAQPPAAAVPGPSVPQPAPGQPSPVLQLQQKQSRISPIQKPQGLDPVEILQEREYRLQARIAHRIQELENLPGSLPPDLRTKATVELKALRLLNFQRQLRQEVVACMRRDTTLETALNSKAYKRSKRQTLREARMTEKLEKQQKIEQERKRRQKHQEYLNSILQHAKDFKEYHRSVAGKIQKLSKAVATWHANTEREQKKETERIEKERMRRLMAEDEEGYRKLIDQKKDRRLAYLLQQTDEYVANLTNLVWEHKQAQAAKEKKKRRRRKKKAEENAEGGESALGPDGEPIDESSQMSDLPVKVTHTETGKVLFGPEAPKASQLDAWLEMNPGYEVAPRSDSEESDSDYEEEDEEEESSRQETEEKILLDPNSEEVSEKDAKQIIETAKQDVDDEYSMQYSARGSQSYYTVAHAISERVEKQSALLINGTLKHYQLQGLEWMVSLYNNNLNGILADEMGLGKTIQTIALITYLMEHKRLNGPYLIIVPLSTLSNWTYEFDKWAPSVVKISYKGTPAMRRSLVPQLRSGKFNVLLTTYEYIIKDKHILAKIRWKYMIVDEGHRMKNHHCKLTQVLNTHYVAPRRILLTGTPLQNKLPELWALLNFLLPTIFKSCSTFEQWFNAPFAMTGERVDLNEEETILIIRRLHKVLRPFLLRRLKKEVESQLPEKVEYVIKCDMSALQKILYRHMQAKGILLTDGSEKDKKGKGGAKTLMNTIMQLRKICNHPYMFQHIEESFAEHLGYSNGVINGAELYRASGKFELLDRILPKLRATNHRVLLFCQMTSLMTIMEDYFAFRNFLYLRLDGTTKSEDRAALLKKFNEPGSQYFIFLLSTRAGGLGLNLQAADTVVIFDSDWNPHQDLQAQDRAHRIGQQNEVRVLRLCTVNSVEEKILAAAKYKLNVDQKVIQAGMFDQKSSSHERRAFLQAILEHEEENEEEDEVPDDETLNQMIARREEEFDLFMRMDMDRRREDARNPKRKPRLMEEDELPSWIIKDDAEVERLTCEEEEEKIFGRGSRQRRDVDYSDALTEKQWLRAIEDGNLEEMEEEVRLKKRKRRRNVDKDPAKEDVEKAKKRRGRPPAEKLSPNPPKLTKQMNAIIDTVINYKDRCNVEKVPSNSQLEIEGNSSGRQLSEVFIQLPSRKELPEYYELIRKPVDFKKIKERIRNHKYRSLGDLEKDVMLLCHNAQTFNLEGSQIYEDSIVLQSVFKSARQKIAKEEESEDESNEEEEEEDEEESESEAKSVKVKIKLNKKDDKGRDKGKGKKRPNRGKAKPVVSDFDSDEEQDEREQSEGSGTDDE
T1 sequence (P51532 whole entry, the tested form may be a part): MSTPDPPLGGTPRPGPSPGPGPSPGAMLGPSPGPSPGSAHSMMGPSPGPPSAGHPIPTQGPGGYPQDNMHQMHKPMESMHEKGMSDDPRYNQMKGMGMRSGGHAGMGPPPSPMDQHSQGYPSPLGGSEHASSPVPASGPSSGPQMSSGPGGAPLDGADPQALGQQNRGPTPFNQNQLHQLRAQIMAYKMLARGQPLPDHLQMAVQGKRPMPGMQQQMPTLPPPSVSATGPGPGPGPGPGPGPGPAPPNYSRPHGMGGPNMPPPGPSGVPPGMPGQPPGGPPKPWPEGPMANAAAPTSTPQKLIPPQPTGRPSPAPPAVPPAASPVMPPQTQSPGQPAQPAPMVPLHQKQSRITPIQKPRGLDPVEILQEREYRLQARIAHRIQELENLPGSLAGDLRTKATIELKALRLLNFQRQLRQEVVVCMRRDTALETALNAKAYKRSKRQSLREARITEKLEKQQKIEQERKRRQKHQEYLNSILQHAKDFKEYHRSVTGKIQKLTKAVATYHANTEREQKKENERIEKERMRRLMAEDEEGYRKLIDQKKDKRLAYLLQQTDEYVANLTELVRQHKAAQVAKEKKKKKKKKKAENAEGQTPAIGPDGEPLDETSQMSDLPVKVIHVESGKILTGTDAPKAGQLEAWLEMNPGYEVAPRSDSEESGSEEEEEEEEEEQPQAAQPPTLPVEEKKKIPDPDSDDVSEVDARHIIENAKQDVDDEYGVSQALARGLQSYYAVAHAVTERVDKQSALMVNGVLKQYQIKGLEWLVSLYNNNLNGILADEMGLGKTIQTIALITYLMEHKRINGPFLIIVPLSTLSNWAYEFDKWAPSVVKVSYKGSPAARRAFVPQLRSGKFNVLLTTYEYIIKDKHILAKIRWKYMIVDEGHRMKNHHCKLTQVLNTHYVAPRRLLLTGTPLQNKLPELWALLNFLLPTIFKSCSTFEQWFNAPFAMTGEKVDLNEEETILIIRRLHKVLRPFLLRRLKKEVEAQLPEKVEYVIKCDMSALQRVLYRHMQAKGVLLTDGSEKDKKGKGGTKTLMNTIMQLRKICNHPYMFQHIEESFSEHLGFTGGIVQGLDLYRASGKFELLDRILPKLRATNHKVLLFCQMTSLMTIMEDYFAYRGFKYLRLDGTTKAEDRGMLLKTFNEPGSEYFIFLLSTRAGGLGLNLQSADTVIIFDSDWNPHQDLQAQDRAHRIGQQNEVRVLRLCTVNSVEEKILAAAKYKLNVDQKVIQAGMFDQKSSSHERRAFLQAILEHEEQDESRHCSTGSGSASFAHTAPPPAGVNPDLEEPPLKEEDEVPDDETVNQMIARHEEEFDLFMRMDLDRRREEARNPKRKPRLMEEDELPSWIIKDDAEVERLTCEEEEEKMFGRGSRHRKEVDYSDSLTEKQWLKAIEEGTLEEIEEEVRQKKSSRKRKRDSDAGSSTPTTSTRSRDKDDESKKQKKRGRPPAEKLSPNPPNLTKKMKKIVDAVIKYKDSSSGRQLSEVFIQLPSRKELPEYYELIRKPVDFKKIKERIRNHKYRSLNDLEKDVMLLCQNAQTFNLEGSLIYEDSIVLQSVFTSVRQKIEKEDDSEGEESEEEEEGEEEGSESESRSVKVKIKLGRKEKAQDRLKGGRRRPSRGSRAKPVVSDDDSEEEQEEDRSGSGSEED

DC50 [1] [µM] | Dmax [1] [%] | DC50 (HiBit-BRM fusion protein) [µM] | BRM HiBit Degradation Maximum measured (HiBit-BRM fusion protein) | Compound
> 10 | < 50 | > 10 | C (‘C’ = Maximum degradation <50%) | CS(=O)(=O)n1ccc(C(=O)N[C@@H](CCOCCCC(=O)NCCOCCOCCOCCNC(=O)COc2ccc3c(c2)C(=O)N(C2CCC(=O)NC2=O)C3=O)C(=O)Nc2nc(-c3ccccc3)cs2)c1 (stereo partly drawn) [Compound 273, (2S)-4-(3-[[2-(2-[2-[2-(2-[[2-(2,6-dioxopiperidin-3-yl)-1,3-dioxoisoindol-5-yl]oxy]acetamido)ethoxy]ethoxy]ethoxy)ethyl]carbamoyl]propoxy)-2-[(1-methanesulfonylpyrrol-3-yl)formamido]-N-(4-phenyl-1,3-thiazol-2-yl)butanamide]
> 10 | < 50 | > 10 | C (‘C’ = Maximum degradation <50%) | CS(=O)(=O)n1ccc(C(=O)N[C@@H](CCOCCCC(=O)NCCOCCOCCNC(=O)COc2ccc3c(c2)C(=O)N(C2CCC(=O)NC2=O)C3=O)C(=O)Nc2nc(-c3ccccc3)cs2)c1 (stereo partly drawn) [Compound 274, (2S)-4-[3-[(2-[2-[2-(2-[[2-(2,6-dioxopiperidin-3-yl)-1,3-dioxoisoindol-5-yl]oxy]acetamido)ethoxy]ethoxy]ethyl)carbamoyl]propoxy]-2-[(1-methanesulfonylpyrrol-3-yl)formamido]-N-(4-phenyl-1,3-thiazol-2-yl)butanamide]
> 10 | < 50 | > 10 | C (‘C’ = Maximum degradation <50%) | CS(=O)(=O)n1ccc(C(=O)N[C@@H](CCOCCCC(=O)NCCCCS(=O)(=O)CCCNc2cccc3c2C(=O)N(C2CCC(=O)NC2=O)C3=O)C(=O)Nc2nc(-c3ccccc3)cs2)c1 (stereo partly drawn) [Compound 275, (2S)-4-(3-[[4-(3-[[2-(2,6-dioxopiperidin-3-yl)-1,3-dioxoisoindol-4-yl]amino]propanesulfonyl)butyl]carbamoyl]propoxy)-2-[(1-methanesulfonylpyrrol-3-yl)formamido]-N-(4-phenyl-1,3-thiazol-2-yl)butanamide]
> 10 | < 50 | > 10 | C (‘C’ = Maximum degradation <50%) | CN(CCNC(=O)CCCOCC[C@H](NC(=O)c1ccn(S(C)(=O)=O)c1)C(=O)Nc1nc(-c2ccccc2)cs1)CCNc1cccc2c1C(=O)N(C1CCC(=O)NC1=O)C2=O (stereo partly drawn) [Compound 276, (2S)-4-[3-([2-[(2-[[2-(2,6-dioxopiperidin-3-yl)-1,3-dioxoisoindol-4-yl]amino]ethyl)(methyl)amino]ethyl]carbamoyl)propoxy]-2-[(1-methanesulfonylpyrrol-3-yl)formamido]-N-(4-phenyl-1,3-thiazol-2-yl)butanamide; formic acid]
> 10 | < 50 | > 10 | C (‘C’ = Maximum degradation <50%) | CS(=O)(=O)n1ccc(C(=O)N[C@@H](CCOCCCC(=O)NCCC2CCN(c3ccc4c(c3)C(=O)N(C3CCC(=O)NC3=O)C4=O)CC2)C(=O)Nc2nc(-c3ccccc3)cs2)c1 (stereo partly drawn) [Compound 277, (2S)-4-[3-[(2-[1-[2-(2,6-dioxopiperidin-3-yl)-1,3-dioxoisoindol-5-yl]piperidin-4-yl]ethyl)carbamoyl]propoxy]-2-[(1-methanesulfonylpyrrol-3-yl)formamido]-N-(4-phenyl-1,3-thiazol-2-yl)butanamide]
> 10 | < 50 | > 10 | C (‘C’ = Maximum degradation <50%) | CS(=O)(=O)n1ccc(C(=O)N[C@@H](CCOCCCC(=O)NCCOC2CN(c3ccc4c(c3)C(=O)N(C3CCC(=O)NC3=O)C4=O)C2)C(=O)Nc2nc(-c3ccccc3)cs2)c1 (stereo partly drawn) [Compound 278, (2S)-4-(3-[[2-([1-[2-(2,6-dioxopiperidin-3-yl)-1,3-dioxoisoindol-5-yl]azetidin-3-yl]oxy)ethyl]carbamoyl]propoxy)-2-[(1-methanesulfonylpyrrol-3-yl)formamido]-N-(4-phenyl-1,3-thiazol-2-yl)-butanemide]

More lines, now with the values behind:

Compound | DC50 [1] [µM] | Dmax [1] [%] | DC50 (HiBit-BRM fusion protein) [µM] | BRM HiBit Degradation Maximum measured (HiBit-BRM fusion protein)
Cc1ncsc1-c1ccc(CNC(=O)[C@@H]2C[C@@H](O)CN2C(=O)[C@@H](NC(=O)CCCCCCCCCCCCC(=O)NCCCC[C@H](NC(=O)c2ccn(S(C)(=O)=O)c2)C(=O)Nc2nc(-c3ccccc3)cs2)C(C)(C)C)cc1 [Compound 267, N-[(2S)-1-[(2S,4R)-4-hydroxy-2-([[4-(4-methyl-1,3-thiazol-5-yl)phenyl]methyl]carbamoyl)pyrrolidin-1-yl]-3,3-dimethyl-1-oxobutan-2-yl]-N-[(5S)-5-[(1-methanesulf-onylpyrrol-3-yl)formamido]-5-[(4-phenyl-1,3-thiazol-2-yl)carbamoyl]pentyl]tetradecanediamide] | > 10 | < 50 | > 10 | C (‘C’ = Maximum degradation <50%)
Cc1ncsc1-c1ccc(CNC(=O)[C@@H]2C[C@@H](O)CN2C(=O)[C@@H](NC(=O)CCCCCCCCC(=O)NCCCC[C@H](NC(=O)c2ccn(S(C)(=O)=O)c2)C(=O)Nc2nc(-c3ccccc3)cs2)C(C)(C)C)cc1 [Compound 268] | > 10 | < 50 | > 10 | C (‘C’ = Maximum degradation <50%)
CS(=O)(=O)n1ccc(C(=O)N[C@@H](CCCCNC(=O)C2CCN(CCOc3ccc4c(c3)C(=O)N(C3CCC(=O)NC3=O)C4=O)CC2)C(=O)Nc2nc(-c3ccccc3)cs2)c1 (stereo partly drawn) [Compound 269] | > 10 | < 50 | > 10 | C (‘C’ = Maximum degradation <50%)
CS(=O)(=O)n1ccc(C(=O)N[C@@H](CCOCCCC(=O)NCCOc2cccc(OCCNc3cccc4c3C(=O)N(C3CCC(=O)NC3=O)C4=O)c2)C(=O)Nc2nc(-c3ccccc3)cs2)c1 (stereo partly drawn) [Compound 270, (2S)-4-[3-([2-[3-(2-[[2-(2,6-dioxopiperidin-3-yl)-1,3-dioxoisoindol-4-yl]amino]ethoxy)phenoxy]ethyl]carbamoyl)propoxy]-2-[(1-methanesulfonylpyrrol-3-yl)formamido]-N-(4-phenyl-1,3-thiazol-2-yl)butanamide] | > 10 | < 50 | > 10 | C (‘C’ = Maximum degradation <50%)
CS(=O)(=O)n1ccc(C(=O)N[C@@H](CCOCCCC(=O)NCCCC#Cc2ccc3c(c2)C(=O)N(C2CCC(=O)NC2=O)C3=O)C(=O)Nc2nc(-c3ccccc3)cs2)c1 (stereo partly drawn) [Compound 271, (2S)-4-[3-([5-[2-(2,6-dioxopiperidin-3-yl)-1,3-dioxoisoindol-5-yl]pent-4-yn-1-yl]carbamoyl)propoxy]-2-[(1-methanesulfonylpyrrol-3-yl)formamido]-N-(4-phenyl-1,3-thiazol-2-yl)butanamide] | > 10 | < 50 | > 10 | C (‘C’ = Maximum degradation <50%)
CS(=O)(=O)n1ccc(C(=O)N[C@@H](CCOCCCC(=O)NCCCC#Cc2cccc3c2C(=O)N(C2CCC(=O)NC2=O)C3=O)C(=O)Nc2nc(-c3ccccc3)cs2)c1 (stereo partly drawn) [Compound 272, (2S)-4-[3-([5-[2-(2,6-dioxopiperidin-3-yl)-1,3-dioxoisoindol-4-yl]pent-4-yn-1-yl]carbamoyl)propoxy]-2-[(1-methanesulfonylpyrrol-3-yl)formamido]-N-(4-phenyl-1,3-thiazol-2-yl)butanamide] | > 10 | < 50 | > 10 | C (‘C’ = Maximum degradation <50%)
